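Grown in 96-well plates, cells were treated for 48 hours with each compound at five concentrations. Insufficient inhibition: endpoint recorded as highest concentration tested. Here, GI50 denotes the concentration required for 50% inhibition of growth.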 Activity calls are given as the source filed them. No stated cut-off is given here; in the data, active = GI50 up to about 1.1 µM and inactive = higher.
Assays:
Experiment in all cases: NCI-60 cell line screen, 48 h
A498 = test system: A498
A549 = test system: A549
COLO 205 = test system: COLO 205
DU-145 = test system: DU-145
HCT-116 = test system: HCT-116
HT-29 = test system: HT-29
KM12 = test system: KM12
LOX IMVI = test system: LOX IMVI
NCI-H460 = test system: NCI-H460
PC-3 = test system: PC-3
RPMI-8226 = test system: RPMI-8226
SF-268 = test system: SF-268
SK-MEL-28 = test system: SK-MEL-28
SK-OV-3 = test system: SK-OV-3
SNB-19 = test system: SNB-19
SNB-75 = test system: SNB-75
TK-10 = test system: TK-10
UACC-257 = test system: UACC-257
UO-31 = test system: UO-31
CAKI-1 = test system: CAKI-1

Measured: GI50

CC(C)(C)NC(=O)CCC1C(C(=O)NC(C)(C)C)C2(Cl)C(Cl)=C(Cl)C1(Cl)C2(Cl)Cl (stereo unspecified)
inactive: A498 > 100 µM | A549 > 100 µM | COLO 205 > 100 µM | DU-145 > 100 µM | HCT-116 > 100 µM | HT-29 > 100 µM | KM12 > 100 µM | LOX IMVI > 100 µM | NCI-H460 > 100 µM | PC-3 > 100 µM | RPMI-8226 > 100 µM | SF-268 > 100 µM | SK-MEL-28 > 100 µM | SK-OV-3 > 100 µM | SNB-19 > 100 µM | SNB-75 > 100 µM | TK-10 > 100 µM | UACC-257 > 100 µM | UO-31 > 100 µM

Cc1c(/C=N\NC(=S)NCCNC(=S)N/N=C\c2c(C)n(C)n(-c3ccccc3)c2=O)c(=O)n(-c2ccccc2)n1C
inactive: A498 > 100 µM | A549 > 100 µM | CAKI-1 > 100 µM | COLO 205 > 100 µM | DU-145 > 100 µM | HCT-116 > 100 µM | HT-29 > 100 µM | KM12 > 100 µM | NCI-H460 > 100 µM | PC-3 > 100 µM | SF-268 > 100 µM | SK-OV-3 > 100 µM | SNB-19 > 100 µM | SNB-75 38 µM | TK-10 > 100 µM | UACC-257 > 100 µM | UO-31 > 100 µM

COc1ccc(C(C#N)NCCCCCCNC(C#N)c2ccc(OC)cc2)cc1 (stereo unspecified)
inactive: A498 > 100 µM | A549 > 100 µM | CAKI-1 > 100 µM | COLO 205 > 100 µM | DU-145 > 100 µM | HCT-116 > 100 µM | HT-29 > 100 µM | KM12 > 100 µM | LOX IMVI > 100 µM | PC-3 > 100 µM | RPMI-8226 > 100 µM | SF-268 > 100 µM | SK-MEL-28 > 100 µM | SK-OV-3 > 100 µM | SNB-19 > 100 µM | SNB-75 > 100 µM | TK-10 > 100 µM | UACC-257 > 100 µM | UO-31 > 100 µM

O=C(C[n+]1ccccc1)N/N=C(\C(=O)NC1=C(Cl)C(=O)c2ccccc2C1=O)c1c(O)c2ccc(O)cc2oc1=O
inactive: A498 19.9 µM | A549 3.03 µM | CAKI-1 6.64 µM | COLO 205 3.05 µM | DU-145 3.59 µM | HCT-116 2.99 µM | HT-29 3.08 µM | KM12 4.85 µM | LOX IMVI 2.63 µM | NCI-H460 2.52 µM | PC-3 2.77 µM | RPMI-8226 5.96 µM | SF-268 9.77 µM | SK-MEL-28 2.94 µM | SK-OV-3 14.1 µM | SNB-75 6.5 µM | TK-10 23.7 µM | UACC-257 3.03 µM | UO-31 12.2 µM

Cc1ccc(C(=O)Nc2ccc(S(=O)(=O)O)c3cc(S(=O)(=O)O)cc(S(=O)(=O)O)c23)cc1NC(=S)Nc1cc(C(=O)Nc2ccc(S(=O)(=O)O)c3cc(S(=O)(=O)O)cc(S(=O)(=O)O)c23)ccc1C
inactive: A498 > 75 µM | A549 > 75 µM | CAKI-1 > 75 µM | DU-145 > 75 µM | HCT-116 > 75 µM | HT-29 > 75 µM | LOX IMVI > 75 µM | NCI-H460 > 75 µM | PC-3 > 75 µM | RPMI-8226 > 75 µM | SF-268 > 75 µM | SK-MEL-28 > 75 µM | SNB-19 > 75 µM | SNB-75 > 75 µM | TK-10 > 75 µM | UACC-257 > 75 µM | UO-31 > 75 µM
